# Test results as given in patent publication US20160251403A1, “PEPTIDE COMBINATIONS AND USES THEREOF IN TREATING DUST MITE ALLERGY” (ALK-ABELLO A/S, priority 2013, published 2016).
# pIC50: −log10 of the molar value. No end group written: not given here.
# Columns and labels:
# DQA10101-DQB10501 = DQA10101-DQB10501 (Homo sapiens, UniProt P01909+P01920, A157S/A45G/A70V/C70R/D89V/E106S/E118A/E183D/E77G/F83G/G63E/H151Q/H199R/H252R/H253Q/I129T/I235V/I88M/INS77G/K197Q/L107V/L117V/L119Y/L178F/L71W/L74F/L85Q/L91A/L98M/M46L/N214S/P87R/Q116E/Q256R/Q57E/Q76K/R102G/R240Q/R75S/R78G/S102Y/S185I/S41F/S97I/T103A/T109R/T121G/T122I/T172A/T86R/V148I/V68A/V73E/Y34C/Y58G/Y62H); experiment: Competitive MHC class II binding assay, DQA10101-DQB10501; settings: positive binding at cutoff 1000 nM; read-out: HLA-DQA10101-DQB10501
# DRB1_0101 = DRB1_0101 (Homo sapiens, UniProt P01903+P01911, A100R/D57E/F55L/F60I/F76Y/I96L/L162R/M171V/P40L/Q125E/R42F/V115G/Y59C); experiment: Competitive MHC class II binding assay, DRB1_0101;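 also: competition against a radiolabeled probe peptide (0.1–1 nM) for purified HLA class II protein over 2–4 days, bound counts read after antibody capture, six competitor levels across 100,000-fold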
# DRB1_0405 = DRB1_0405 (Homo sapiens, UniProt P01903+P01911, A100R/A169T/D86S/F76Y/I96L/K127E/L162R/M171V/N62H/P40V/Q125Y/R42H/S133A/S149N/S66Y/V115G/V209L/W38E); experiment: Competitive MHC class II binding assay, DRB1_0405
# DRB1_0701 = DRB1_0701 (Homo sapiens, UniProt P01903+P01911, A100R/A102G/A103Q/D57E/D86V/E43K/F76Y/K127E/L162R/M171V/P40G/Q125H/Q99D/R33Q/R42Y/R54Q/S133A/S66F/T210M/V115G/Y107V/Y59L/Y89S); experiment: Competitive MHC class II binding assay, DRB1_0701;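 also: displacement of a radiolabeled reference peptide from purified HLA class II protein, with complex-bound radioactivity counted after 2–4 days of incubation and six concentrations spanning a 100,000-fold range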
# DRB1_0802 = DRB1_0802 (Homo sapiens, UniProt P01903+P01911, A100R/A103L/A169T/F76Y/H45Y/I96F/K41T/L162R/M171V/P40S/Q125H/Q178H/Q39Y/Q99D/R218S/R42G/S66Y/V115G/W38E); experiment: Competitive MHC class II binding assay, DRB1_0802
# DRB4_0101 = DRB4_0101 (Homo sapiens, UniProt P01903+P13762, G164S); experiment: Competitive MHC class II binding assay, DRB4_0101
# DRB5_0101 = DRB5_0101 (Homo sapiens, UniProt P01903+Q30154); experiment: Competitive MHC class II binding assay, DRB5_0101
# DPA10103-DPB10201 = target: T1, DPA10103-DPB10201 (Homo sapiens, UniProt P04440+P20036, A65V/A84D/A85E/K98E); experiment: Competitive MHC class II binding assay, DPA10103-DPB10201
# T1 sequence (P20036 29-260): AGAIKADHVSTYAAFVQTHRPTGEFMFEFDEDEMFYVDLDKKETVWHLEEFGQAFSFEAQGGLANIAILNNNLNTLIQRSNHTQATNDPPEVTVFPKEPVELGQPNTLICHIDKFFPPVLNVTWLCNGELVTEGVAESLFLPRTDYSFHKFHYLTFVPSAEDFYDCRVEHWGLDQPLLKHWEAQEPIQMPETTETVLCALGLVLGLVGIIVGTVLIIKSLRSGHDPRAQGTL
# T1 sequence (P04440 30-258 A65V/A84D/A85E/K98E): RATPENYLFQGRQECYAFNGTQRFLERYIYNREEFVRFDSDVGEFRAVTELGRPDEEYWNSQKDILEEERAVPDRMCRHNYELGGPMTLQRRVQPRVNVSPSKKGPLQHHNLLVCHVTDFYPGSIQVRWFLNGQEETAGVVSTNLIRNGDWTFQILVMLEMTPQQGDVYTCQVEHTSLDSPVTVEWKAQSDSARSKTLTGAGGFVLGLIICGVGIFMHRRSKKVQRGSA
# DQA10102-DQB10602 = experiment: Competitive MHC class II binding assay, DQA10102-DQB10602; settings: read-out: HLA-DQA10102-DQB10602; positive binding at cutoff 1000 nM
# DRB1_0401 = DRB1_0401 (Homo sapiens, UniProt P01903+P01911, A100K/A169T/F76Y/I96L/K127E/L162R/M171V/N62H/P40V/Q125Y/R42H/S133A/S149N/S66Y/V115G/V209L/W38E); experiment: Competitive MHC class II binding assay, DRB1_0401
# DRB3_0202 = DRB3_0202 (Homo sapiens, UniProt P01903+P79483, A212P/D57E/F66Y/L67A/R103Q/R218S/R40L/S89Y/T80R/V86D/Y55F/Y59H); experiment: Competitive MHC class II binding assay, DRB3_0202
# DQA10401-DQB10402 = experiment: Competitive MHC class II binding assay, DQA10401-DQB10402; settings: for pIC50: read-out: HLA-DQA10401-DQB10402, positive binding at cutoff 1000 nM
# DRB1_1101 = DRB1_1101 (Homo sapiens, UniProt P01903+P01911, A100R/A169T/A87E/I96F/K41T/L162R/M171V/P40S/Q125H/Q178H/Q39Y/Q99D/R42S/S66Y/T262R/V115G/W38E); experiment: Competitive MHC class II binding assay, DRB1_1101
Molecule,pIC50 (DQA10101-DQB10501),pIC50 (DRB1_0101),pIC50 (DRB1_0405),pIC50 (DRB1_0701),pIC50 (DRB1_0802),pIC50 (DRB4_0101),pIC50 (DRB5_0101),pIC50 (DPA10103-DPB10201),pIC50 (DQA10102-DQB10602),pIC50 (DRB1_0401),pIC50 (DRB3_0202),pIC50 (DQA10401-DQB10402),pIC50 (DRB1_1101),binding to HLA Class II allele DRB3_0202 (DRB3_0202; as shown in Table 16a),binding to HLA Class II allele DQA10401-DQB10402 (DQA10401-DQB10402; as shown in Table 16a)
CC[C@H](C)[C@H](NC(=O)CNC(=O)[C@@H](NC(=O)[C@@H](NC(=O)[C@@H](NC(=O)[C@H](C)NC(=O)[C@@H](NC(=O)[C@H](C)NC(=O)[C@H](CO)NC(=O)[C@H](Cc1c[nH]cn1)NC(=O)[C@@H](NC(=O)[C@H](CCC(N)=O)NC(=O)[C@H](C)NC(=O)[C@H](CC(C)C)NC(=O)[C@H](C)NC(=O)[C@H](CCC(=O)O)NC(=O)[C@@H](N)CCCNC(=N)N)[C@@H](C)O)[C@@H](C)CC)C(C)C)[C@@H](C)CC)[C@@H](C)CC)C(=O)N[C@@H](CCCCN)C(=O)N[C@@H](CC(=O)O)C(=O)N[C@@H](CC(C)C)C(=O)N[C@@H](CC(=O)O)C(=O)N[C@@H](C)C(=O)O [pep-130],> 6.00,> 6.00,> 6.00,> 6.00,> 6.00,> 6.00,> 6.00,> 6.00,> 6.00,–,–,–,–,–,–
LVGDNGVLASAIATHAKIRD [pep-110],–,> 6.00,–,–,> 6.00,> 6.00,> 6.00,–,> 6.00,> 6.00,–,–,–,–,–
LVKGQQYDIKYTWNVPKIAPK [pep-131],–,> 6.00,–,> 6.00,> 6.00,–,> 6.00,> 6.00,–,–,> 6.00,–,–,–,–

# Now from value to molecule, other results behind:
pIC50 (DQA10101-DQB10501),pIC50 (DRB1_0101),pIC50 (DRB1_0405),pIC50 (DRB1_0701),pIC50 (DRB1_0802),pIC50 (DRB4_0101),pIC50 (DRB5_0101),pIC50 (DPA10103-DPB10201),pIC50 (DQA10102-DQB10602),pIC50 (DRB1_0401),pIC50 (DRB3_0202),pIC50 (DQA10401-DQB10402),pIC50 (DRB1_1101),Molecule,binding to HLA Class II allele DRB3_0202 (DRB3_0202; as shown in Table 16a),binding to HLA Class II allele DQA10401-DQB10402 (DQA10401-DQB10402; as shown in Table 16a)
> 6.00,> 6.00,> 6.00,> 6.00,> 6.00,> 6.00,–,> 6.00,> 6.00,> 6.00,> 6.00,> 6.00,–,DNGYGYFAANIDLMMIEE [pep-010],binds to at least the same alleles as peptide 041,binds to at least the same alleles as peptide 041
> 6.00,> 6.00,> 6.00,> 6.00,–,–,–,–,> 6.00,> 6.00,> 6.00,> 6.00,> 6.00,GSGSSWAFSGVAATESAYLA [pep-044],–,–
> 6.00,–,> 6.00,> 6.00,> 6.00,> 6.00,–,–,> 6.00,> 6.00,–,–,> 6.00,HAVNIVGYSNAQGVDYWIVR [pep-058],–,–
